# Test results taken from ChEMBL document CHEMBL5321208, “The effect of side chain variations on quinazoline-pyrimidine G-quadruplex DNA ligands” (Eur J Med Chem, 2023).
# Calls of active or inactive are those of the source. The calls are words filed in the database; no cut-off is given here.
# How the values were obtained:
# Quadruplex DNA [1] = test: Binding affinity to FAM/TAMRA-labelled parallel KRAS G4 DNA (unknown origin) assessed as thermal stabilization at highest concentration at 10 to 95 degreeC by FRET analysis; format: nucleic-acid assay
# Quadruplex DNA [2] = test: Binding affinity to FAM/TAMRA-labelled parallel KRAS G4 DNA (unknown origin) assessed as thermal stabilization at lowest concentration at 10 to 95 degreeC by FRET analysis; format: nucleic-acid assay
# dsDNA = test: Binding affinity to double stranded DNA (unknown origin) assessed as thermal stabilization at 1 to 8 uM measured at 10 to 95 degreeC by FRET analysis; format: nucleic-acid assay; conditions: dose 1-8 µM
# Quadruplex DNA [3] = test: Binding affinity to FAM/TAMRA-labelled parallel c-MYC Pu24T G4 DNA (unknown origin) assessed as thermal stabilization in the presence of 15 equivalents of double stranded DNA by FRET competition assay; format: nucleic-acid assay
# Quadruplex DNA [4] = test: Binding affinity to FAM/TAMRA-labelled parallel c-MYC Pu24T G4 DNA (unknown origin) assessed as thermal stabilization by measuring change in melting temperature at 2 uM in the presence of 100 equivalents of double stranded DNA by FRET competition assay; format: nucleic-acid assay
# Quadruplex DNA [5] = test: Binding affinity to parallel c-MYC Pu24T G4 DNA (unknown origin) assessed as change in topology at 5 uM by CD spectra analysis; format: nucleic-acid assay
# Quadruplex DNA [6] = test: Binding affinity to FAM/TAMRA-labelled c-KIT1 G4 DNA (unknown origin) assessed as thermal stabilization at 1 to 8 uM measured at 10 to 95 degreeC by FRET analysis; format: nucleic-acid assay; conditions: dose 1-8 µM
# [7] = Cytotoxicity against wildtype C57BL/6J mouse cancer activated fibroblast cells assessed as inhibition of cell growth incubated for 5 days by resazurin dye based fluorescence microscopic analysis; format: toxicity
# [8] = Antitumor activity against KPC mouse pancreatic cancer organoid expressing lentiviral modified GFP co-cultured with WT C57BL/6J mouse pancreatic stellate cells expressing mKate2 assessed as inhibition of cell growth incubated for 5 days by resazurin dye based fluorescence microscopic analysis; format: functional, tissue-based; conditions: 120 h
# Quadruplex DNA [9] = test: Binding affinity to parallel c-MYC Pu24T G4 DNA (unknown origin) assessed as thermal stabilization by measuring change in melting temperature at 5 uM measured at 1:1 DNA to ligand ratio by CD spectra analysis; format: nucleic-acid assay
# Quadruplex DNA [10] = test: Binding affinity to FAM/TAMRA-labelled parallel c-MYC Pu24T G4 DNA (unknown origin) assessed as thermal stabilization at 1 to 8 uM measured at 10 to 95 degreeC by FRET analysis; format: nucleic-acid assay; conditions: dose 1-8 µM
# Quadruplex DNA [11] = test: Binding affinity to FAM/TAMRA-labelled parallel KRAS G4 DNA (unknown origin) assessed as thermal stabilization by measuring change in melting temperature at 2 uM in the presence of 100 equivalents of double stranded DNA by FRET competition assay; format: nucleic-acid assay
# Quadruplex DNA [12] = test: Binding affinity to 5'-Cy5-labelled parallel c-MYC Pu24T G4 DNA (unknown origin) assessed as dissociation constant by MST analysis; format: nucleic-acid assay
# Quadruplex DNA [13] = test: Binding affinity to FAM/TAMRA-labelled 21g G4 DNA (unknown origin) assessed as thermal stabilization at 1 to 8 uM measured at 10 to 95 degreeC by FRET analysis; format: nucleic-acid assay; conditions: dose 1-8 µM
# Quadruplex DNA [14] = test: Binding affinity to FAM/TAMRA-labelled c-MYC Pu22 G4 DNA (unknown origin) assessed as thermal stabilization at 1 to 8 uM measured at 10 to 95 degreeC by FRET analysis; format: nucleic-acid assay; conditions: dose 1-8 µM
# Quadruplex DNA [15] = test: Binding affinity to FAM/TAMRA-labelled antiparallel Bom17 G4 DNA (unknown origin) assessed as thermal stabilization at 1 to 8 uM measured at 10 to 95 degreeC by FRET analysis; format: nucleic-acid assay; conditions: dose 1-8 µM
# Quadruplex DNA [16] = test: Binding affinity to FAM/TAMRA-labelled parallel KRAS G4 DNA (unknown origin) assessed as thermal stabilization in the presence of 15 equivalents of double stranded DNA by FRET competition assay; format: nucleic-acid assay
# Quadruplex DNA [17] = test: Binding affinity to FAM/TAMRA-labelled antiparallel TBA G4 DNA (unknown origin) assessed as thermal stabilization at 1 to 8 uM measured at 10 to 95 degreeC by FRET analysis; format: nucleic-acid assay; conditions: dose 1-8 µM
# Quadruplex DNA [18] = test: Binding affinity to FAM/TAMRA-labelled c-KIT2 G4 DNA (unknown origin) assessed as thermal stabilization at 1 to 8 uM measured at 10 to 95 degreeC by FRET analysis; format: nucleic-acid assay; conditions: dose 1-8 µM
# Quadruplex DNA [19] = test: Binding affinity to FAM/TAMRA-labelled parallel 25ceb G4 DNA (unknown origin) assessed as thermal stabilization at 1 to 8 uM measured at 10 to 95 degreeC by FRET analysis; format: nucleic-acid assay; conditions: dose 1-8 µM
Activity (Quadruplex DNA [1]),Activity (Quadruplex DNA [2]),Activity (dsDNA),SMILES,Activity (Quadruplex DNA [3]),ΔTm (Quadruplex DNA [4]) [°C],Activity (Quadruplex DNA [5]),Activity (Quadruplex DNA [6]),IC50 at 5 days [7] [nM],IC50 [8] [nM],ΔTm (Quadruplex DNA [9]) [°C],Activity (Quadruplex DNA [10]),ΔTm (Quadruplex DNA [11]) [°C],Kd (Quadruplex DNA [12]) [nM],Activity (Quadruplex DNA [13]),Activity (Quadruplex DNA [14]),Activity (Quadruplex DNA [15]),Activity (Quadruplex DNA [16]),Activity (Quadruplex DNA [17]),Activity (Quadruplex DNA [18]),Activity (Quadruplex DNA [19])
Active,inactive,inactive,Cc1cc(NCCc2c[nH]c3ccccc23)nc(Nc2nc(C)c3ccc4c(c3n2)CCCC4)n1,,,,,,,,,,,,,,,,,
Active,inactive,inactive,Cc1cc(NCCc2c[nH]c3ccccc23)nc(Nc2nc(C)c3ccc4c(c3n2)CCC4)n1,,,,,,,,,,,,,,,,,

SMILES,Activity (Quadruplex DNA [1]),Activity (Quadruplex DNA [2]),Activity (dsDNA),Activity (Quadruplex DNA [3]),ΔTm (Quadruplex DNA [4]) [°C],Activity (Quadruplex DNA [5]),Activity (Quadruplex DNA [6]),IC50 at 5 days [7] [nM],IC50 [8] [nM],ΔTm (Quadruplex DNA [9]) [°C],Activity (Quadruplex DNA [10]),ΔTm (Quadruplex DNA [11]) [°C],Kd (Quadruplex DNA [12]) [nM],Activity (Quadruplex DNA [13]),Activity (Quadruplex DNA [14]),Activity (Quadruplex DNA [15]),Activity (Quadruplex DNA [16]),Activity (Quadruplex DNA [17]),Activity (Quadruplex DNA [18]),Activity (Quadruplex DNA [19])
Cc1cc(NCCCN2CCN(C)CC2)nc(Nc2nc(C)c3ccc4c(c3n2)CCC4)n1,,,inactive,Active,7,inactive,Active,264,211,5,Active,10,265,Active,Active,inactive,Active,inactive,Active,inactive
